Patent US10800766B2, “Quinoline alkenes as cytoprotective agents” (priority 2015, dated 2020)

How the values were obtained:
Human SH-SY5Y cells = experiment: Cell rescue assay: protection against β-amyloid-induced cell toxicity; assay type: cell-based; details: 7.5 uM compound, AB1-42 at 10 uM, 4 days, OD at 490 nm
Method: Protection against β-amyloid-induced cell toxicity. Chonpathompikunlert et al. Eu. J. Pharmacol. 2011, 650, 544-549. Human SH-SY5Y cells are suspended in media containing 2% FBS and 2× Gentamicin. Transfer 100 ul/well culture to 96-well plate (20,000 cells/well; passage #5) and incubate overnight. Prepare compound samples at 30 uM. Add 50 ul of the samples to the cells [[…]] and incubate 3 hours. Make stock of 40 uM AB1-42 peptide in assay media. Transfer 50 ul/well to cells/compounds in assay plate. The final assay volume is 200 ul/well, containing 2% FBS, 2× Gentamicin, 7.5 uM compound and AB1-42 at 10 uM. Incubate for 4 days then add 20 ul of Promega Substrate Cell Titer 96 Aqueous One Solution Reagent to each well. Incubate 37° C. and read OD at 490 nm. The results are summarized in Table 3, where A represents a value greater than 50% cell rescue, B represents a value greater than 10% and less than 50% cell rescue, and C represents a value greater than 1% and less than 10% cell rescue.

Ob/ob mice = experiment: Effect of a SERCA agonist on the level of blood glucose; assay type: in vivo, mouse; details: 50 mg/kg i.p. once a day for 5 days, fasting glucose at baseline and 4 days after administration
Method: Ob/ob mice (10 weeks old, n=7) were intraperitoneally (i.p.) injected with 100 μL of a solution containing 0 (vehicle) or 50 mg/kg of a test compound once a day for a total of 5 days. Fasting glucose was measured at baseline and 4 days after the administration of the test compound. Glucose levels were measured in blood samples drawn from the tail vein using a handheld glucose sensor. Compound effects on blood glucose are shown in Table 5 where A represents a 10-20% reduction in blood glucose, B represents a 21-30% reduction in blood glucose, and C represents a greater than 30% reduction in blood glucose levels.

CSM14.1 neuronal cells = experiment: Cell survival assay (thapsigargin-induced cell death, CELLTITER-GLO luminescence); assay type: cell-based; details: CSM14.1 cells, compound 2 hrs before about 15 μM thapsigargin, overnight (about 16 to 24 hrs), cell viability
Method: CSM14.1 neuronal cells were maintained in Complete Medium at 32° C.; wherein the Complete Medium contained Dulbecco's modified eagle medium (DMEM) with 10% fetal bovine serum (FSB), 1% L-glutamine, 100 IU/mL penicillin, and 100 μg/mL streptomycin. The cells were recovered from cultures by trypsinization and then seeded in 384 well plates (Greiner #781098) at a concentration of 1,000 cells/well in 20 μL of DMEM Assay Medium, wherein the DMEM Assay Medium contained 2% FBS, 100 IU/mL penicillin, and 100 μg/mL streptomycin. Seeding was performed using a MultiDrop Combi reagent broadcaster. The plates were incubated overnight at 32° C. A test compound was prepared by 2-fold serial dilution in 100% DMSO using a BIOMEK® 2000 liquid handler (Beckman Coulter). A dose-response curve containing 10 concentrations of the test compound was obtained. Using a BIOMEK® FX liquid handler (Beckman Coulter), 2.5 μL of the test compound was transferred from the 100% DMSO serial dilution plate to an intermediate plate containing 47.5 μL of DMEM Assay Medium containing 2% FBS, 100 IU/mL penicillin, and 100 μg/mL streptomycin and mixed. To reduce or eliminate the interference from the compound's precipitation, 6 μL of the diluted compound was immediately transferred to the assay plate to achieve a high compound concentration of 100 μM in 99% DMEM Assay Medium and 1% DMSO. After the assay plates were incubated for 2 hrs, 4 μL of 112.5 μM thapsigargin (TG) (DMSO stock diluted into Assay TC Medium) was dispensed into each testing well with a MultiDrop Combi reagent broadcaster for a final concentration of about 15 μM TG. The tissue culture media (4 μL) containing vehicle only was transferred manually to each control cell using a 16 channel electronic pipette. After the plates were incubated overnight (about 16 to 24 hrs), CELLTITER-GLO® (Promega) (16 μL) was added to all wells and luminescence was measured. High luminescence indicates cell survival. The biological results are summarized in Table 1 where A represents a cell viability EC50 less than 1 μM and B represents a value greater than 1 μM and less than 10 μM.

[1] = target: T1, SERCA (microsomal preparations from HEK 293 cells) (Homo sapiens, UniProt P16615); experiment: Ca-ATPase assay (NADH-linked, enzyme-coupled ATPase assay); assay type: biochemical; details: ATP hydrolysis rate over a range of calcium concentrations, Vmax by fit to Hill function, relative to controls
T1 construct: endogenous in cells; host or cells: HEK 293 cells (microsomal preparation)
Method: A Ca-ATPase assay was performed using microsomal preparations from HEK 293 cells at a series of calcium concentrations corresponding to the physiological range, relative to controls. The ATP hydrolysis rate was measured over a range of calcium concentrations in the presence of test compounds using an NADH-linked, enzyme-coupled ATPase assay adapted for 96-well microplates, with Vmax determined by fitting the ATPase calcium-dependence to the Hill function. Each well contained 2 μg or 7 μg of SR vesicles (optimized for skeletal or cardiac SR, respectively), 50 mM MOPS (pH 7.0), 100 mM KCl, 5 mM MgCl2, 1 mM EGTA, 0.2 mM NADH, 1 mM phosphoenol pyruvate, 5 IU pyruvate kinase, 5 IU lactate dehydrogenase, and 3.5 μg/mL A23187 (a calcium ionophore). CaCl2 was added to set free [Ca^2+] to the specific values. The assay was started upon addition of ATP at a final concentration of 5 mM, and read in a SpectraMax Plus microplate spectrophotometer. The results are summarized in Table 4, where A represents an increase in SERCA Vmax greater than 50% and B represents a value greater than 10% and less than 50%.

[2] = test system: Human embryonic kidney (HEK293) cells; Mouse neuroblastoma (N2a) cells; experiment: Cell rescue assay: protection against thapsigargin (TG)-induced cell-death (ALAMARBLUE); assay type: cell-based; details: compound 20 μM, 2 hrs before thapsigargin (15 μM for HEK293 cells, 1 μM for N2a cells), 24 hrs; viability as % RFU compared to control
Method: Protection against Thapsigargin (TG)-induced Cell-death. Human embryonic kidney (HEK293) cells were grown in Dulbecco's Modified Eagle's Medium (DMEM) with 10% FBS and 1% antibiotic antimycotic solution (ABAM). Mouse neuroblastoma (N2a) cells were grown in 1:1 DMEM:OPTI-MEM® with 5% FBS and 1% ABAM. All cells were grown in 10% CO2 in a humidified environment of the incubator. Cells grown in 96-well plates were exposed to a test compound (20 μM) for 2 hrs before addition of thapsigargin (15 μM for HEK293 cells and 1 μM for N2a cells) to induce ER stress. After incubation in cell-culture incubator for 24 hrs, ALAMARBLUE® regent (10% v/v) was added to the wells. Fluorescence reading was taken 2 hrs after the addition of the ALAMARBLUE® regent. Cell-viability was calculated as a percentage of relative fluorescence unit (RFU) compared to control. […] The biological results are summarized in Table 2, where each compound was tested at 20 μM and where A represents a viability greater than 50%, B represents a viability greater than 10% and less than 50%, C represents a value below 10%.

T1 sequence (P16615 whole entry): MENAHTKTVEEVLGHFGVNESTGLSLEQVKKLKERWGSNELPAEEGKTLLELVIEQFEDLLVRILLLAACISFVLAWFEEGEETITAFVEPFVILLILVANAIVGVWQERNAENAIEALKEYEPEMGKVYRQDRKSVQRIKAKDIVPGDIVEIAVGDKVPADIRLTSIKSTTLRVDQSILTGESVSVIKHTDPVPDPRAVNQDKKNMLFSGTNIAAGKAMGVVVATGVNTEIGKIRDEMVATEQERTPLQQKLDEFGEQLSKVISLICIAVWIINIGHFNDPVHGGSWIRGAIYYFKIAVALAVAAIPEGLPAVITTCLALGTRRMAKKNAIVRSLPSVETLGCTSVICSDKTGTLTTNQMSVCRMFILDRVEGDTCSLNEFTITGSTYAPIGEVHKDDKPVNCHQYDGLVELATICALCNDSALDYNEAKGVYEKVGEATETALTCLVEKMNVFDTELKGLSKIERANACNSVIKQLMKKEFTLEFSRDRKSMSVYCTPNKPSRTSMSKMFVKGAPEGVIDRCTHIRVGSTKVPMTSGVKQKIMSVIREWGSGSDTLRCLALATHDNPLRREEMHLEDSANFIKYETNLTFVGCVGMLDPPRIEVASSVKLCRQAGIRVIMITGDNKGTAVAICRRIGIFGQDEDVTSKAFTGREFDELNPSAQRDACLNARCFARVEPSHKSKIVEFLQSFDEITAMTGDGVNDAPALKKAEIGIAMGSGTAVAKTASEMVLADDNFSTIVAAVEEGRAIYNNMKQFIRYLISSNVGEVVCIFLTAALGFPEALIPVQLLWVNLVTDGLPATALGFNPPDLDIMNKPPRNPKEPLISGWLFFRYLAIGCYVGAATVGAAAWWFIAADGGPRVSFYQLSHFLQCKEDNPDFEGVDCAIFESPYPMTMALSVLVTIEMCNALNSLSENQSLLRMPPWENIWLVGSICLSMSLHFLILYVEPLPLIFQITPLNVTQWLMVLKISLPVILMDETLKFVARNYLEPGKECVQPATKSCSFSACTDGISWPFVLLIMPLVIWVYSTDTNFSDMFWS

Structure (SMILES)	Cell Survival % (cell rescue) (Human SH-SY5Y cells)	Glucose level reduction (Ob/ob mice)	EC50 (CSM14.1 neuronal cells) [nM]	SERCA Vmax Increase [1]	Cell Survival % [2]
Cc1ccc2cccc(/C=C/c3ccc(Cl)cc3)c2n1 [A4, (E)-8-(4-Chlorostyryl)-2-methylquinoline]	B (B represents a value greater than 10% and less than 50% cell rescue)	A (A represents a 10-20% reduction in blood glucose)	< 1000	B (B represents a value greater than 10% and less than 50%)	C (C represents a value below 10%)
Cc1ccc2cccc(/C=C/c3cccc(C(F)(F)F)c3)c2n1 [A5, (E)-8-(3-(Trifluoromethyl)styryl)-2-methylquinoline]	B (B represents a value greater than 10% and less than 50% cell rescue)	B (B represents a 21-30% reduction in blood glucose)	1000 to 10000	A (A represents an increase in SERCA Vmax greater than 50%)	B (B represents a viability greater than 10% and less than 50%)
Cc1ccc2cccc(/C=C/c3ccc(OC(C)C)cc3)c2n1 [A1, (E)-8-(4-Isopropoxystyryl)-2-methylquinoline]	A (A represents a value greater than 50% cell rescue)	C (C represents a greater than 30% reduction in blood glucose levels)	< 1000	A (A represents an increase in SERCA Vmax greater than 50%)	A (A represents a viability greater than 50%)
Cc1ccc2cccc(/C=C/c3cc(Br)cs3)c2n1 [A2, (E)-8-(2-(4-Bromothiophen-2-yl)vinyl)-2-methylquinoline]	B (B represents a value greater than 10% and less than 50% cell rescue)	B (B represents a 21-30% reduction in blood glucose)	< 1000	A (A represents an increase in SERCA Vmax greater than 50%)	A (A represents a viability greater than 50%)
Cc1ccc2cccc(/C=C/c3cccc(F)c3)c2n1 [A6, (E)-8-(3-Fluorostyryl)-2-methylquinoline]	A (A represents a value greater than 50% cell rescue)	A (A represents a 10-20% reduction in blood glucose)	1000 to 10000	B (B represents a value greater than 10% and less than 50%)	B (B represents a viability greater than 10% and less than 50%)
Cc1ccc2cccc(/C=C/c3ccc(Br)s3)c2n1 [A3, (E)-8-(2-(5-Bromothiophen-2-yl)vinyl)-2-methylquinoline]	C (C represents a value greater than 1% and less than 10% cell rescue)	B (B represents a 21-30% reduction in blood glucose)	1000 to 10000	A (A represents an increase in SERCA Vmax greater than 50%)	B (B represents a viability greater than 10% and less than 50%)
